Measurements published in ChEMBL document CHEMBL1275533, “In vitro antibacterial activity of vertilmicin and its susceptibility to modifications by the recombinant AAC6'-APH2'' enzyme” (2008).
Converted amounts (≈) assume the structure as drawn. The source made the active and inactive calls. The calls are words filed in the database; no cut-off is given here.

Tests used:
[1] = system: Pseudomonas sp.; assay: Antibacterial activity against gentamicin-resistant Pseudomonas spp. clinical isolate assessed as susceptible isolates after 18 hrs by agar dilution method; format: functional
[2] = system: Acinetobacter calcoaceticus; assay: Antibacterial activity against non-gentamicin-resistant Acinetobacter calcoaceticus clinical isolate assessed as susceptible isolates after 18 hrs by agar dilution method; format: functional
[3] = system: Providencia rettgeri; assay: Antibacterial activity against gentamicin-resistant Proteus rettgeri clinical isolate after 18 hrs by agar dilution method; format: functional
[4] = system: Serratia marcescens; assay: Antibacterial activity against gentamicin-resistant Serratia marcescens clinical isolate after 18 hrs by agar dilution method; format: functional
[5] = system: Citrobacter freundii; assay: Antibacterial activity against non-gentamicin-resistant Citrobacter freundii clinical isolate assessed as susceptible isolates after 18 hrs by agar dilution method; format: functional
[6] = system: Escherichia coli BL21(DE3); assay: Phosphorylation activity of AAC(6')-APH(2'') in Escherichia coli BL21(DE3) assessed as oxidation of NADH by pyruvate kinase
[7] = system: Proteus mirabilis; assay: Antibacterial activity against gentamicin-resistant Proteus mirabilis clinical isolate assessed as susceptible isolates after 18 hrs by agar dilution method; format: functional
[8] = system: Serratia marcescens; assay: Antibacterial activity against non-gentamicin-resistant Serratia marcescens clinical isolate after 18 hrs by agar dilution method; format: functional
[9] = system: Citrobacter koseri; assay: Antibacterial activity against gentamicin-resistant Citrobacter diversus clinical isolate assessed as susceptible isolates after 18 hrs by agar dilution method; format: functional
[10] = system: Haemophilus influenzae; assay: Antibacterial activity against non-gentamicin-resistant Haemophilus influenzae clinical isolate assessed as susceptible isolates after 18 hrs by agar dilution method; format: functional, organism-based
[11] = system: Haemophilus parainfluenzae; assay: Antibacterial activity against non-gentamicin-resistant Haemophilus parainfluenzae clinical isolate assessed as susceptible isolates after 18 hrs by agar dilution method; format: functional, organism-based
[12] = system: Staphylococcus epidermidis; assay: Antibacterial activity against non-gentamicin-resistant Staphylococcus epidermidis clinical isolate assessed as susceptible isolates after 18 hrs by agar dilution method; format: functional
[13] = system: Klebsiella pneumoniae; assay: Antibacterial activity against non-gentamicin-resistant Klebsiella pneumoniae clinical isolate assessed as susceptible isolates after 18 hrs by agar dilution method; format: functional
[14] = system: Escherichia coli BL21(DE3); assay: Ratio of Vmax to Km for AAC(6')-APH(2'') in Escherichia coli BL21(DE3) assessed as production of free pyridine-4-thiolate relative to netilmicin
[15] = system: Pseudomonas sp.; assay: Antibacterial activity against gentamicin-resistant Pseudomonas spp. clinical isolate after 18 hrs by agar dilution method; format: functional
[16] = system: Staphylococcus aureus; assay: Antibacterial activity against non-gentamicin-resistant Staphylococcus aureus clinical isolate assessed as susceptible isolates after 18 hrs by agar dilution method; format: functional
[17] = system: Escherichia coli; assay: Antibacterial activity against gentamicin-resistant Escherichia coli clinical isolate assessed as susceptible isolates after 18 hrs by agar dilution method; format: functional
[18] = system: Staphylococcus epidermidis; assay: Antibacterial activity against non-gentamicin-resistant Staphylococcus epidermidis clinical isolate after 18 hrs by agar dilution method; format: functional
[19] = system: Klebsiella pneumoniae; assay: Antibacterial activity against gentamicin-resistant Klebsiella pneumoniae clinical isolate after 18 hrs by agar dilution method; format: functional
[20] = system: Escherichia coli BL21(DE3); assay: Acetylation activity of AAC(6')-APH(2'') in Escherichia coli BL21(DE3) assessed as production of free pyridine-4-thiolate relative to netilmicin
[21] = system: Enterobacter cloacae; assay: Antibacterial activity against non-gentamicin-resistant Enterobacter cloacae clinical isolate assessed as susceptible isolates after 18 hrs by agar dilution method; format: functional
[22] = system: Klebsiella aerogenes; assay: Antibacterial activity against gentamicin-resistant Enterobacter aerogenes clinical isolate after 18 hrs by agar dilution method; format: functional
[23] = system: Serratia marcescens; assay: Antibacterial activity against non-gentamicin-resistant Serratia marcescens clinical isolate assessed as susceptible isolates after 18 hrs by agar dilution method; format: functional
[24] = system: Acinetobacter calcoaceticus; assay: Antibacterial activity against non-gentamicin-resistant Acinetobacter calcoaceticus clinical isolate after 18 hrs by agar dilution method; format: functional
[25] = system: Staphylococcus epidermidis; assay: Bactericidal activity against Staphylococcus epidermidis isolate 01-55 at >=1 MIC up to 8 hrs by time-kill study; format: functional, organism-based
[26] = system: Klebsiella pneumoniae; assay: Antibacterial activity against Klebsiella pneumoniae isolate 01-21 after 18 hrs by agar dilution method; format: functional; details: isolate 01-21, 18 h
[27] = system: Klebsiella pneumoniae; assay: Antibacterial activity against Klebsiella pneumoniae isolate 01-21 at 1 MIC up to 8 hrs by time-kill study; format: functional, organism-based
[28] = system: Staphylococcus aureus; assay: Antibacterial activity against Staphylococcus aureus ATCC 29213 after 18 hrs by agar dilution method; format: functional; details: ATCC 29213, 18 h
[29] = system: Staphylococcus epidermidis; assay: Antibacterial activity against Staphylococcus epidermidis isolate 01-55 after 18 hrs by agar dilution method; format: functional; details: isolate 01-55, 18 h
[30] = system: Escherichia coli BL21(DE3); assay: Ratio of Vmax to Km for AAC(6')-APH(2'') in Escherichia coli BL21(DE3) assessed as oxidation of NADH by pyruvate kinase relative to netilmicin
[31] = system: Staphylococcus aureus; assay: Bactericidal activity against Staphylococcus aureus ATCC 29213 at >=1 MIC up to 8 hrs by time-kill study; format: functional, organism-based
[32] = system: Escherichia coli; assay: Antibacterial activity against Escherichia coli ATCC 25922 at MIC up to 8 hrs by time-kill study; format: functional, organism-based
[33] = system: Escherichia coli BL21(DE3); assay: Phosphorylation activity of AAC(6')-APH(2'') in Escherichia coli BL21(DE3) assessed as oxidation of NADH by pyruvate kinase relative to verdamicin
[34] = system: Escherichia coli; assay: microbe, parasite or virus in culture; details: ATCC 25922, 18 h
Description: Antibacterial activity against Escherichia coli ATCC 25922 after 18 hrs by agar dilution method

Structure (SMILES): CN[C@@H]1[C@@H](O)[C@@H](O[C@@H]2[C@@H](O)[C@H](O[C@@H]3OC(C(C)N)=CC[C@@H]3N)[C@@H](N)C[C@H]2N)OC[C@]1(C)O (stereo not given in full) [VERDAMICIN]
- Activity [1]: 3.8%
- Activity [2]: 98%
- MIC50 [3]: 32 µg/mL (≈ 69.3 µM)
- MIC90 [3]: 128 µg/mL (≈ 277 µM)
- MIC50 [4]: > 128 µg/mL
- MIC90 [4]: > 128 µg/mL
- Activity [5]: 72.2%
- Km [6]: 41.4 µM
- Activity [7]: 18.2%
- MIC50 [8]: 0.25 µg/mL (≈ 0.542 µM)
- MIC90 [8]: 0.5 µg/mL (≈ 1.08 µM)
- Activity [9]: 0%
- Activity [10]: inactive
- Activity [11]: inactive
- Activity [12]: 75%
- Activity [13]: 98.8%
- Vmax/Km [14]: 4.5%
- MIC50 [15]: 128 µg/mL (≈ 277 µM)
- MIC90 [15]: > 128 µg/mL
- Activity [16]: 94.8%
- Activity [17]: 3.5%
- MIC50 [18]: 0.5 µg/mL (≈ 1.08 µM)
- MIC90 [18]: 32 µg/mL (≈ 69.3 µM)
- MIC50 [19]: 128 µg/mL (≈ 277 µM)
- MIC90 [19]: > 128 µg/mL
- Vmax [20]: 9.6%
- Activity [21]: 98.2%
- MIC50 [22]: > 128 µg/mL
- MIC90 [22]: > 128 µg/mL
- Activity [23]: 96.3%
- MIC50 [24]: 0.5 µg/mL (≈ 1.08 µM)
- MIC90 [24]: 2 µg/mL (≈ 4.33 µM)

Structure (SMILES): CCN[C@@H]1C[C@H](N)[C@@H](O[C@@H]2OC(C(C)N)=CC[C@@H]2N)[C@H](O)[C@H]1O[C@H]1OC[C@](C)(O)[C@H](NC)[C@H]1O (stereo not given in full) [VERTILMICIN]
- Activity [1]: 7.7%
- Activity [25]: Dose-dependent effect
- Activity [2]: 93.8%
- MIC50 [3]: 8 µg/mL (≈ 16.3 µM)
- MIC90 [3]: 64 µg/mL (≈ 131 µM)
- MIC50 [4]: > 128 µg/mL
- MIC90 [4]: > 128 µg/mL
- Activity [5]: 90%
- Km [6]: 104 µM
- Activity [7]: 36.4%
- MIC [8]: 0.25 µg/mL (≈ 0.511 µM)
- MIC50 [8]: 0.25 µg/mL (≈ 0.511 µM)
- MIC90 [8]: 1 µg/mL (≈ 2.04 µM)
- MIC [26]: 0.25 µg/mL (≈ 0.511 µM)
- Activity [9]: 7.1%
- Activity [10]: inactive
- Activity [11]: inactive
- Activity [27]: Dose-dependent effect
- Activity [12]: 100%
- Activity [13]: 97.6%
- Vmax/Km [14]: 4.2%
- MIC [28]: 0.125 µg/mL (≈ 0.255 µM)
- MIC50 [15]: 128 µg/mL (≈ 261 µM)
- MIC90 [15]: > 128 µg/mL
- Activity [16]: 94.8%
- MIC [29]: 0.25 µg/mL (≈ 0.511 µM)
- Activity [17]: 68.4%
- MIC50 [18]: 0.125 µg/mL (≈ 0.255 µM)
- MIC90 [18]: 1 µg/mL (≈ 2.04 µM)
- Vmax/Km [30]: 19.9%
- MIC50 [19]: 16 µg/mL (≈ 32.7 µM)
- MIC90 [19]: > 128 µg/mL
- Vmax [20]: 6.5%
- Activity [31]: Dose-dependent effect
- Activity [21]: 100%
- MIC50 [22]: 16 µg/mL (≈ 32.7 µM)
- MIC90 [22]: > 128 µg/mL
- Activity [23]: 100%
- Activity [32]: Dose-dependent effect
- Vmax [33]: 49.8%
- MIC50 [24]: 1 µg/mL (≈ 2.04 µM)
- MIC90 [24]: 2 µg/mL (≈ 4.08 µM)
- MIC [34]: 0.25 µg/mL (≈ 0.511 µM)
